Our source for the IC50 and EC50 values is patent publication US8501732B2, “Aminomethyl quinolone compounds” (Hoffmann-La Roche Inc., priority 2011, dated 2013).

Each structure is given as a SMILES string. Structures can show the parent of a compound that is named as a salt.

One test concerns the target JNK1 (Homo sapiens (Human), UniProt P45983). The experiment in a line: In Vitro JNK1 Assay (TR-FRET, phosphorylation of GST-c-Jun). The following applies: 0.2 nM active JNK1 kinase, 26.7 nM GST-c-Jun, 2 μM ATP, 30 min at room temperature. The class given is biochemical. A digest of the protocol:
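GST-c-Jun (residues 1-79) phosphorylation by JNK1 in 50 mM HEPES pH 7.0, MgCl2, 1 mM DTT, 0.1 mM Na3VO4, 0.2 mg/mL BSA, 30 min at room temperature. Stopped with EDTA plus anti-phospho-c-Jun antibody and read by TR-FRET 1 hr later. IC50 from percent inhibition over 10 serial dilutions.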

For test [1], the system named is phospho(Ser63)-c-jun in HK-2 cells. Description: Cell-Based Assay for JNK Inhibitors (in-cell ELISA, phospho(Ser63)-c-jun after TNFα). The following applies: HK-2 cells (human proximal tubule cells), 60 minutes compound, then 10 ng/mL TNFα for 30 minutes. On the procedure: Cell-Based Assay for JNK Inhibitors
The cell-based assay employed the in-cell ELISA method to determine the ability of compounds to prevent the generation of phospho(Ser63)-c-jun in HK-2 cells (human proximal tubule cells) in response to stimulation with tumor necrosis factor α (TNFα). In brief, for quantification of phospho(Ser63)-c-jun, the cells (in 96-well format) were fixed and permeablized then incubated sequentially with a rabbit anti-phospho-c-jun First Antibody specific for the presence of the phospho-Ser63 epitope and a donkey anti-rabbit IgG Second Antibody linked to horseradish peroxidase (HRP) for colorimetric quantitation of binding. […] Blank wells received no TNFα stimulation or compound. Additional Control wells received TNFα stimulation, but no compound.
Stock cultures of HK-2 cells (ATCC, Manassas, Va.) were grown under a 5% CO2/[…] atmosphere at 37 degrees C. in Keratinocyte-SFM medium (KSFM, Invitrogen, Grand Island, N.Y.) containing 5 μg/L epidermal growth factor and 5 mg/L bovine pituitary extract (both supplied with the medium), additionally supplemented with 10% (v/v) fetal calf serum (FCS; Invitrogen, Grand Island, N.Y.) and 1% (v/v) antibiotic-antimycotic (ABAM: Sigma, St. Louis, Mo.). For assays, cells were seeded in collagen coated 96-well polystyrene plates (BD Biosciences, Franklin Lakes, N.J.) at a density of 40,000 cells/well and cultured for 24 h in the same medium (100 μL/well) followed by a further 16-24 h in 100 μL of similar medium, but without FCS. […] Plates were then allowed to stand at room temperature for 20 minutes before being washed with 200 μL/well of PBS. (Further steps were performed immediately or the plates were stored at 4 degrees C. and the assay completed the next day.) To each well was added 100 μL 1% (v/v) TritonX-100 (Sigma, St. Louis, Mo.) in PBS followed by 20 minutes standing at room temperature, washing with 200 μL/well PBS, the addition of 100 μL/well of Quenching buffer (1% (v/v) hydrogen peroxide (Sigma, St. Louis, Mo.) and 0.1% (w/v) sodium azide (Fisher Scientific, Fair Lawn, N.J.)) in PBS and a further 20 minutes at room temperature. Plates were then washed twice with 200 μL/well of 0.1% (v/v) Tween-20 (Teknova, Hollister, Calif.) in PBS before addition of 200 μL/well of 2% BSA/0.1% Tween-20 in PBS and a further 1 hour at room temperature. […] After a further one hour, rabbit anti-phospho-c-jun-Ser63 is added directly to the solution in the Blank wells resulting in 1:250 dilution of this antibody. Plates were then placed on a slowly rotating platform at 4 degrees C. overnight. Wells were then washed thrice with 200 μL/well PBS/0.1% Tween-20. After addition of the third wash, the plates were placed on a slowly rotating platform for 15 minutes at room temperature. The final PBS/Tween20 wash was then replaced with 100 μL/well of donkey anti-rabbit HRP-labeled Second Antibody (Jackson ImmunoResearch Laboratory, West Grove, Pa.) diluted 1:10,000 in Antibody Dilution Buffer and the plates placed on a slowly rotating platform for 1 hour at room temperature. Wells were then washed four times with 200 μL/well PBS/0.1% Tween-20, including slow rotation for 30 minutes for the third wash and 10 minutes for the final wash. The wells were then washed once with 200 μL PBS without Tween-20. […] Absorbance was determined at a 450 nm wavelength using a spectrophotometer (Molecular Devices SpectraMax 250).

Sequence of JNK1 (P45983 whole entry, the tested form may be a part): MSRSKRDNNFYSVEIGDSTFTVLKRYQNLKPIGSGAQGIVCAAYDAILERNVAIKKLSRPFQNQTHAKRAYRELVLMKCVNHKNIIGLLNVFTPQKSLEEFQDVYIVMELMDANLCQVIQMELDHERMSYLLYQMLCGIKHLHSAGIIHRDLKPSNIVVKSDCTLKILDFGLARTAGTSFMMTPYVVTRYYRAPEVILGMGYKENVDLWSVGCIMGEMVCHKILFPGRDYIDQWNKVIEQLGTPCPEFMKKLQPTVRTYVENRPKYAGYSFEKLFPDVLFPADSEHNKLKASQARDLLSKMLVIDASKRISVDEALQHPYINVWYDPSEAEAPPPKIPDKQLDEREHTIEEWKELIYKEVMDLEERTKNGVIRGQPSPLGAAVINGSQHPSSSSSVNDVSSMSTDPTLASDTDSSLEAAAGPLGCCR

As for `CN(CCO)c1ccc(C(=O)NCc2cn(-c3ccccc3)c3cc(Cl)ccc3c2=O)cn1` [Example I-66, N-(7-Chloro-4-oxo-1-phenyl-1,4-dihydro-quinolin-3-ylmethyl)-6-[(2-hydroxy-ethyl)-methyl-amino]-nicotinamide], the midpoint of inhibition at JNK1, the IC50, lay at 19 nM. Moreover, the concentration for a half-maximal effect (EC50) in test [1] came out at 29000 nM.

For the molecule `O=C(NCc1cn(-c2ccccc2)c2cc(Cl)ccc2c1=O)c1cnc(N2CCS(=O)(=O)CC2)s1` [Example I-97, 2-(1,1-Dioxo-thiomorpholin-4-yl)-thiazole-5-carboxylic acid (7-chloro-4-oxo-1-phenyl-1,4-dihydro-quinolin-3-ylmethyl)-amide], the midpoint of inhibition at JNK1, the IC50, lay at 69 nM. The EC50 in test [1] is 39000 nM.

`O=c1c(CNc2ncnc3cc(F)ccc23)cn(-c2ccccc2)c2cc(Cl)ccc12` [Example I-172, 7-Chloro-3-[(7-fluoro-quinazolin-4-ylamino)-methyl]-1-phenyl-1H-quinolin-4-one] registered an IC50 at JNK1 of 79 nM. The molecule also returned an EC50 in test [1] of 100000 nM.

Regarding `CN(C)c1cc(C(=O)NCc2cn(-c3ccccc3)c3cc(Cl)ccc3c2=O)ccn1` [Example I-41, N-(7-Chloro-4-oxo-1-phenyl-1,4-dihydro-quinolin-3-ylmethyl)-2-dimethyl amino-isonicotinamide], it took 88 nM to reach half-maximal inhibition on JNK1 (IC50). This molecule had an EC50 in test [1] of 28000 nM.

For `O=C(NCc1cn(-c2ccccc2)c2cc(Cl)ccc2c1=O)c1ccc(N2CCCC2)nc1` [Example I-84, N-(7-Chloro-4-oxo-1-phenyl-1,4-dihydro-quinolin-3-ylmethyl)-6-pyrrolidin-1-yl-nicotinamide], on JNK1, half-maximal inhibition (IC50) was put at 100 nM. Besides, the response in test [1] was half-maximal at 52000 nM (EC50).

With `CN(C)C(=O)c1c(CNC(=O)c2ccc(S(C)(=O)=O)cc2)c(=O)c2ccc(Cl)cc2n1-c1ccccc1` [Example I-19, 7-Chloro-3-[(4-methanesulfonyl-benzoylamino)-methyl]-4-oxo-1-phenyl-1,4-di-hydro-quinoline-2-carboxylic acid dimethylamide], the IC50 on JNK1 stood at 180 nM. For the same molecule, the EC50 in test [1] was 30000 nM.

The molecule `O=C(NCc1cn(-c2ccccc2)c2cc(Cl)ccc2c1=O)c1ccc(N2C[C@@H]3C[C@H]2CN3)nc1` (stereo in doubt) [Example I-89, trifluoroacetate] had an EC50 in test [1] of 31000 nM.

Take `COc1cccc(Cn2ccc(C(=O)NCc3cn(-c4ccccc4)c4cc(Cl)ccc4c3=O)cc2=O)c1` [Example I-38, 1-(3-Methoxy-benzyl)-2-oxo-1,2-dihydro-pyridine-4-carboxylic acid (7-chloro-4-oxo-1-phenyl-1,4-dihydro-quinolin-3-ylmethyl)-amide]: the IC50 against JNK1 was 72 nM. This molecule showed an EC50 in test [1] of 16000 nM.

As to `O=C(NCc1c(-c2ncco2)n(-c2ccccc2)c2cc(Cl)ccc2c1=O)c1ccc(N2CCCCC2)nc1` [Example I-7, 3,4,5,6-Tetrahydro-2H-[1,2′]bipyridinyl-5′-carboxylic acid (7-chloro-2-oxazol-2-yl-4-oxo-1-phenyl-1,4-dihydro-quinolin-3-ylmethyl)-amide], 14 nM corresponded to half-maximal inhibition against JNK1 (IC50). This molecule also registered an EC50 in test [1] of 4500 nM.

`COC(=O)c1c(CNC(=O)c2ccc(N3CCOCC3)cc2)c(=O)c2ccc(Cl)cc2n1-c1ccccc1` [Example I-123, 7-Chloro-3-[(4-morpholin-4-yl-benzoylamino)-methyl]-4-oxo-1-phenyl-1,4-dihydro-quinoline-2-carboxylic acid methyl ester] showed an IC50 against JNK1 of 16 nM. Moreover, the EC50 in test [1] turned out to be 2200 nM.

In turn, `CN(C)C(=O)c1c(CNC(=O)c2ccc(N3CCOCC3)nc2)c(=O)c2ccc(Cl)cc2n1-c1ccccc1` [Example I-13, 7-Chloro-3-{[(6-morpholin-4-yl-pyridine-3-carbonyl)-amino]-methyl}-4-oxo-1-phenyl-1,4-dihydro-quinoline-2-carboxylic acid dimethylamide] displayed an IC50 on JNK1 of 35 nM. The EC50 in test [1] worked out at 37000 nM.

The molecule `O=C(NCc1cn(-c2ccccc2)c2cc(Cl)ccc2c1=O)c1ccc(N(CCO)CCO)nc1` [Example I-64, 6-[Bis-(2-hydroxy-ethyl)-amino]-N-(7-chloro-4-oxo-1-phenyl-1,4-dihydro-quinolin-3-ylmethyl)-nicotinamide] returned an IC50 against JNK1 of 18 nM. For the same molecule, the midpoint of the response in test [1], the EC50, lay at 100000 nM.

For the molecule `COC(=O)c1c(CNC(=O)c2ccc(N3CCOCC3)nc2)c(=O)c2ccc(Cl)cc2n1-c1ccccc1` [Example I-112, 7-Chloro-3-{[(6-morpholin-4-yl-pyridine-3-carbonyl)-amino]-methyl}-4-oxo-1-phenyl-1,4-dihydro-quinoline-2-carboxylic acid methyl ester], it took 6 nM to reach half-maximal inhibition at JNK1 (IC50). Further, a half-maximal response in test [1] (EC50) required 1200 nM.

With `O=C(NCc1cn(-c2ccccc2F)c2cc(F)ccc2c1=O)c1cnn(-c2ccccc2)c1` [Example I-103, 1-Phenyl-1H-pyrazole-4-carboxylic acid [7-fluoro-1-(2-fluoro-phenyl)-4-oxo-1,4-dihydro-quinolin-3-ylmethyl]-amide], the response in test [1] was half-maximal at 12000 nM (EC50).

In test [1], `COC(=O)c1c(CNC(=O)c2cnc(N3CCOCC3)s2)c(=O)c2ccc(Cl)cc2n1-c1ccccc1` [Example I-116, Chloro-3-{[(2-morpholin-4-yl-thiazole-5-carbonyl)-amino]-methyl}-4-oxo-1-phenyl-1,4-dihydro-quinoline-2-carboxylic acid methyl ester] yielded an EC50 of 2200 nM.

Take `O=C(NCc1cn(-c2ccccc2)c2cc(Cl)ccc2c1=O)NC1CCN(C(=O)c2ccccc2)CC1` [Example I-194, 1-(1-Benzoyl-piperidin-4-yl)-3-(7-chloro-4-oxo-1-phenyl-1,4-dihydro-quinolin-3-yl-methyl)-urea]: inhibition against JNK1 was half-maximal at 190 nM (IC50).

With `O=C(NCc1c(-c2ncco2)n(-c2ccccc2)c2cc(Cl)ccc2c1=O)c1ccc(Cl)nc1` [Example I-6, 6-Chloro-N-(7-chloro-2-oxazol-2-yl-4-oxo-1-phenyl-1,4-dihydro-quinolin-3-ylmethyl)-nicotinamide], the IC50 against JNK1 was 29 nM. This IC50 lies about 6.6-fold lower than the previous one.

`COC(=O)c1c(CNc2nccc3ccccc23)c(=O)c2ccc(Cl)cc2n1-c1ccccc1` [Example I-207, 7-Chloro-3-(isoquinolin-1-ylaminomethyl)-4-oxo-1-phenyl-1,4-dihydro-quinoline-2-carboxylic acid methyl ester] registered an IC50 against JNK1 of 110 nM.

Regarding `O=C(NCc1cn(-c2ccccc2)c2cc(Cl)ccc2c1=O)Nc1ccc(OC(F)(F)F)cc1` [Example I-205, 1-(4-trifluoromethoxy-phenyl)-3-(7-chloro-4-oxo-1-phenyl-1,4-dihydro-quinolin-3-yl-methyl)-urea], the midpoint of inhibition against JNK1, the IC50, lay at 1800 nM.

The molecule `COC(=O)[C@H]1CC[C@H](NC(=O)NCc2cn(-c3ccccc3)c3cc(Cl)ccc3c2=O)CC1` [Example I-189, 4-[3-(7-Chloro-4-oxo-1-phenyl-1,4-dihydro-quinolin-3-ylmethyl)-ureido]-cyclohexanecarboxylic acid methyl ester] displayed a concentration for half-maximal inhibition (IC50) at JNK1 of 2000 nM. The IC50 values of the last two molecules are within 1.5-fold of each other.

Take `CN(C)c1ccc(NC(=O)NCc2cn(-c3ccccc3)c3cc(Cl)ccc3c2=O)cc1` [Example I-202, 1-(7-Chloro-4-oxo-1-phenyl-1,4-dihydro-quinolin-3-ylmethyl)-3-(4-dimethylamino-phenyl)-urea]: the IC50 at JNK1 was determined as 630 nM.

For the molecule `COC(=O)c1c(CNC(=O)C2CCN(S(C)(=O)=O)CC2)c(=O)c2ccc(Cl)cc2n1-c1ccccc1` [Example I-131, 7-Chloro-3-{[(1-methanesulfonyl-piperidine-4-carbonyl)-amino]-methyl}-4-oxo-1-phenyl-1,4-dihydro-quinoline-2-carboxylic acid methyl ester], on JNK1, the half-inhibitory concentration (IC50) is 640 nM.
